Experiment [1] deals with Mycobacterium kansasii. Briefly: Antimycobacterial activity against Mycobacterium kansasii 6509/96 after 21 days by micromethod. The experiment is classed as functional. The settings on record: 6509/96, 504 h.
The test system of experiment [2] is Mycobacterium avium. Briefly: Antimycobacterial activity against Mycobacterium avium 330/88 after 14 days by micromethod. The settings on record: 330/88, 336 h. The format is functional.
Experiment [3] concerns Mycobacterium tuberculosis. Kind of experiment: Antimycobacterial activity against Mycobacterium tuberculosis H37Rv 331/88 after 14 days by micromethod. Particulars: H37Rv 331/88, 336 h. The format is functional.
Experiment [4] concerns Mycobacterium kansasii. Kind of experiment: Antimycobacterial activity against Mycobacterium kansasii 6509/80 after 7 days by micromethod. The format is functional. The settings on record: 6509/80, 168 h.
The subject of experiment [5] is Klebsiella pneumoniae. Briefly: Antibacterial activity against extended spectrum beta-lactamase-positive Klebsiella pneumoniae J 14368/08 after 24 to 48 hrs by microdilution broth method. The experiment is classed as functional, organism-based. For orientation: Dilution methods test growth across graded concentrations, often in twofold steps.
For experiment [6], the system named is Mycobacterium kansasii. Kind of experiment: Antimycobacterial activity against Mycobacterium kansasii 6509/80 after 21 days by micromethod. The format is functional. The settings on record: 6509/80, 504 h.
The test system of experiment [7] is Aspergillus fumigatus. Kind of experiment: Antifungal activity against Aspergillus fumigatus 231 after 24 to 48 hrs by microdilution broth method. The format is functional, organism-based.
The test system of experiment [8] is Klebsiella pneumoniae. Briefly: Antibacterial activity against gram-negative Klebsiella pneumoniae D 11750/08 after 24 to 48 hrs by microdilution broth method. The experiment is classed as functional, organism-based.
Experiment [9] concerns Mycobacterium tuberculosis. Briefly: Antimycobacterial activity against Mycobacterium tuberculosis H37Rv 331/88 after 21 days by micromethod. The experiment is classed as functional. Particulars: H37Rv 331/88, 504 h.
Experiment [10] concerns Candida albicans. Briefly: Antifungal activity against Candida albicans ATCC 44859 after 24 to 48 hrs by microdilution broth method. The format is functional, organism-based.
Experiment [11] has as its system Mycobacterium avium. Briefly: Antimycobacterial activity against Mycobacterium avium 330/88 after 21 days by micromethod. The format is functional. Particulars: 330/88, 504 h.
For experiment [12], the system named is Mycobacterium kansasii. Briefly: Antimycobacterial activity against Mycobacterium kansasii 6509/96 after 14 days by micromethod. The experiment is classed as functional. Particulars: 6509/96, 336 h.
For experiment [13], the system named is Mycobacterium kansasii. Kind of experiment: Antimycobacterial activity against Mycobacterium kansasii 6509/96 after 7 days by micromethod. The format is functional. Particulars: 6509/96, 168 h.
The subject of experiment [14] is Pseudomonas aeruginosa. Kind of experiment: Antibacterial activity against gram-negative Pseudomonas aeruginosa CCM 1961 after 48 hrs by microdilution broth method. The format is functional, organism-based.
The subject of experiment [15] is Trichosporon asahii. Briefly: Antifungal activity against Trichosporon asahii 1188 after 24 to 48 hrs by microdilution broth method. The experiment is classed as functional, organism-based.
The subject of experiment [16] is Mycobacterium kansasii. Briefly: Antimycobacterial activity against Mycobacterium kansasii 6509/80 after 14 days by micromethod. The format is functional. Particulars: 6509/80, 336 h.
Experiment [17] has as its system Lichtheimia corymbifera. Kind of experiment: Antifungal activity against Absidia corymbifera 272 after 24 to 48 hrs by microdilution broth method. The experiment is classed as functional, organism-based.

Values after ≈ are worked out from the molar mass of the structure shown. Active and inactive are the calls of the source. No cut-off for these calls is given here.

As to `O=C(N/N=C/c1cccc(O)c1)c1ccc(C(F)(F)F)cc1`, the MIC in experiment [1] was 500 µM (≈ 154 µg/mL); in [2] it was 250 µM (≈ 77.1 µg/mL); in [3], 250 µM (≈ 77.1 µg/mL); in [4] it was 62.5 µM (≈ 19.3 µg/mL); in experiment [6], 250 µM (≈ 77.1 µg/mL); in experiment [9], 250 µM (≈ 77.1 µg/mL). Besides, the MIC in experiment [11] was 250 µM (≈ 77.1 µg/mL); in [12] it was 500 µM (≈ 154 µg/mL); in experiment [13], 250 µM (≈ 77.1 µg/mL); in experiment [16], 125 µM (≈ 38.5 µg/mL). In addition, the outcome in experiment [5], in experiment [7], in [8], in experiment [10], in [14] and in experiment [15] was inactive. For the same molecule, the result in [17] was inactive.

`O=C(NN=C1CCCC1)c1ccc(C(F)(F)F)cc1`: the MIC in experiment [1] was 1000 µM (≈ 270 µg/mL); in experiment [2], above 125 µM; in [3] it was 500 µM (≈ 135 µg/mL); in experiment [4], 500 µM (≈ 135 µg/mL); in experiment [6] it was above 1000 µM; in experiment [9], 500 µM (≈ 135 µg/mL). Moreover, the MIC in [11] was above 125 µM; in [12] it was 1000 µM (≈ 270 µg/mL); in experiment [13] it was 500 µM (≈ 135 µg/mL); in experiment [16] it was above 1000 µM.

On to `O=C(NN=C1CCCCC1)c1ccc(C(F)(F)F)cc1`, for which the MIC in experiment [1] was 1000 µM (≈ 284 µg/mL); in experiment [2], above 125 µM; in experiment [3] it was 250 µM (≈ 71.1 µg/mL); in [4], 500 µM (≈ 142 µg/mL); in experiment [6], above 1000 µM; in experiment [9], 500 µM (≈ 142 µg/mL). Besides, the MIC is above 125 µM in [11], 1000 µM (≈ 284 µg/mL) in experiment [12], 500 µM (≈ 142 µg/mL) in [13] and above 1000 µM in [16].

`O=C(N/N=C/c1ccc([N+](=O)[O-])cc1)c1ccc(C(F)(F)F)cc1`: the MIC in experiment [1] is above 250 µM; in experiment [2], above 250 µM; in experiment [3], 125 µM (≈ 42.2 µg/mL); in experiment [4] it was 32 µM (≈ 10.8 µg/mL); in experiment [6] it was 62.5 µM (≈ 21.1 µg/mL); in experiment [9] it was above 250 µM. Moreover, the MIC in experiment [11] is above 250 µM; in experiment [12], above 250 µM; in [13], 250 µM (≈ 84.3 µg/mL); in experiment [16], 62.5 µM (≈ 21.1 µg/mL). Moreover, the outcome in [5], in experiment [7], in experiment [8], in [10], in experiment [14] and in experiment [15] was inactive. In addition, the outcome in [17] was inactive.

Consider `NNC(=O)c1ccncc1` [ISONIAZID], for which the MIC in [1] is 8 µM (≈ 1.1 µg/mL); in [2], above 250 µM; in experiment [3], 0.5 µM (≈ 0.0686 µg/mL); in [4], above 250 µM; in experiment [6] it was above 250 µM; in experiment [9], 1 µM (≈ 0.137 µg/mL). The MIC in experiment [11] was above 250 µM; in experiment [12], 8 µM (≈ 1.1 µg/mL); in [13] it was 8 µM (≈ 1.1 µg/mL); in experiment [16], above 250 µM.

For `O=C(N/N=C/c1cccc(Cl)c1)c1ccc(C(F)(F)F)cc1`, the MIC in [1] is above 125 µM; in [2], above 125 µM; in [3], above 125 µM; in experiment [4], 125 µM (≈ 40.8 µg/mL); in experiment [6] it was above 125 µM; in experiment [9] it was above 125 µM. The MIC in [11], in experiment [12], in [13] and in experiment [16] was above 125 µM each time. The outcome in [5], in experiment [7], in experiment [8], in experiment [10], in experiment [14] and in [15] was inactive. Moreover, the result in experiment [17] was inactive.

One may read the MIC as the least concentration at which growth counts as inhibited. A lower MIC goes with inhibition by little substance.
